Assay [1] concerns HAPI cells. It counts as cell-based, rat. As to the method: Figure 5 Toxicity studies of RK-33 in mice • Following injection of 20 mg/kg of RK-33, twice a week for 7 weeks, extensive histopathological examination was carried out following necropsy. Identical patterns were observed both in the control and in the treated mice (n = 2). Samples were stained with H&E. Scale bar is 50 μm. • Pharmacokinetics of RK-33 in SCID mice at various time intervals. Results are mean ± SD from 5 mice. LC-MS/MS method was used to determine concentration of RK-33 in mouse plasma and tissue. • Liquid chromatography–mass spectrometry (LC-MS/MS) analysis was performed to determine different metabolites of RK-33. • RK-33 and metabolites characterized by LC-MS/MS in human liver microsomes using the scan mode function of the LC-MS/MS. • HAPI cells were treated with RK-33 (10 μM), HA14-1 (25 μM), or DMSO vehicle, followed by oligomycin (oligo, 0.5 μg/ml), FCCP (3 μM), and antimycin A (AA, 1 μM) while oxygen consumption rate (OCR) was measured. Pyruvate (10 mM) was added in combination with FCCP to ensure that substrate supply was not rate-limiting for maximal OCR. Data are mean ± SD from 2 to 3 wells and representative of independent experiments performed with two different HAPI passages. OCR is baseline-normalized to the point prior to drug or vehicle addition. • HAPI microglial cells were incubated for 1 h in glucose-free XF24 assay medium that was supplemented with 2-deoxyglucose (50 mM) and pyruvate (10 mM). RK-33 (10 μM), oligomycin (0.5 μg/ml), or vehicle control was additionally present as indicated. Results are mean ± SD from 12 replicates pooled from experiments using two consecutive passages. Significance was assessed by two-sided, unpaired t-test. […]
Oxygen consumption measurements were performed using an XF24 Extracellular Flux Analyzer (Seahorse Bioscience, Billerica, MA) as previously described (Wu et al, [2007]; Clerc & Polster, [2012]). […] The ATP bioluminescent somatic cell assay kit (Sigma-Aldrich) was employed for the determination of ATP levels by luminescence using a FLUOstar OPTIMA multimodal plate reader (BMG LABTECH, Inc., Cary, NC). […]

Assay [2] concerns HAPI cells. It counts as cell-based, rat. The note with it: 0.5 μg/ml, 1 h.

As to `CCOC(=O)C1=C(N)Oc2ccc(Br)cc2C1C(C#N)C(=O)OCC` (stereo not shown) [HA14-1], in assay [1] (25 μM, positive control), the “OCR measured in the presence of FCCP” value is reported as “decreased OCR measured in the presence of FCCP” and the oligomycin-insensitive oxygen consumption entry is listed as “elevated oligomycin-insensitive oxygen consumption”.
For the compound `CCCCCC[C@H]1C(=O)O[C@H](C)[C@H](NC(=O)c2cccc(NC=O)c2O)C(=O)O[C@@H](C)[C@@H]1OC(=O)CC(C)C` [antimycin A], the “oxygen consumption in the presence of all drugs” value in assay [1] (1 μM) was “potently inhibited”.
Take `CC[C@H]1/C=C/C=C/C[C@@H](C)[C@H](O)[C@@](C)(O)C(=O)[C@@H](C)[C@H](O)[C@@H](C)C(=O)[C@@H](C)[C@H](O)[C@@H](C)/C=C/C(=O)O[C@@H]2[C@H](C)[C@H](CC1)O[C@]1(CC[C@H](C)[C@H](C[C@@H](C)O)O1)[C@H]2C` [oligomycin]: the “decrease of total cellular ATP” value in assay [2] is “approximately 70%”.

These data come from article PMC4492822 (EMBO Molecular Medicine, 2015).
